Series [1] is described as follows: Caco-2 Permeability Assay. Conditions: human, Caco-2, pH 7.4. Format: in vitro ADME, human. The procedure, abridged:
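Caco-2 monolayers cultured 21 days (TEER >600 […]); test article at 10 μM in HBSS/HEPES pH 7.4 transport medium, dosed apical or basolateral, ±Pgp inhibitor. Incubated 90 min at 37 °C; both compartments quantified by LC-MS/MS. Papp (A→B, B→A), efflux ratio and % recovery calculated.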

The nature of series [2]: Stability in Simulated Gastric Fluid (SGF). To be noted: % remaining @ 1 h. On the set-up: key: % parent compound remaining relative to 0-minute sample. In kind it is in vitro ADME. Summed up:
(§1)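 Compound at 2 μg/mL final was incubated at 37° C with orbital shaking in SGF containing pepsin (pH 1.2) or SIF containing pancreatin (pH 6.8), sampled from 0 to 60 minutes. Parent remaining was measured by LC-MS/MS relative to the 0-minute sample; half-life came from ln(% remaining) versus time when enough points existed.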

Series [3] can be described thus: Stability in Simulated Intestinal Fluid (SIF). Format: in vitro ADME. On the set-up: key: % parent compound remaining relative to 0-minute sample. To be noted: % remaining @ 1 h. Summed up:
as §1

The nature of the next series: Plasma Stability. Format: in vitro ADME, human. Conditions: % remaining @ 1 h. Summed up:
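Compounds incubated at 1 μM in fresh human plasma for 1 hour at 37° C, then protein-precipitated with acetonitrile/formic acid containing internal standard. Remaining parent measured by LC-MS/MS in triplicate, expressed as percent of control remaining.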

`CC(C)OCCn1c(SCOC(=O)[C@@H](NC(=O)OC(C)(C)C)C(C)C)nc(=O)c2c1ccn2COC(=O)[C@@H](NC(=O)OC(C)(C)C)C(C)C` [Example 295, {[5-({[(2S)-2-{[(tert-butoxy)carbonyl]amino}-3-methylbutanoyl]oxy}methyl)-4-oxo-1-[2-(propan-2-yloxy)ethyl]-1H,4H,5H-pyrrolo[3,2-d]pyrimidin-2-yl]sulfanyl}methyl (2S)-2-{[(tert-butoxy)carbonyl]amino}-3-methylbutanoate]: in series [1], the Papp at 90 min, 10 µM turned out to be 17 ×10⁻⁶ cm/s. Besides, the SGF in series [2] is recorded as 58% @ 1 h. The SIF in series [3] is reported as 0% @ 1 h. Also, in the series “Plasma Stability”, the “human Plasma stability” value is 81% @ 1 h.

In series [1], `CC(C)OCCn1c(=S)[nH]c(=O)c2c1ccn2COC(=O)[C@@H](N)C(C)C.O=C(O)C(F)(F)F` [Example 296, trifluoroacetic acid {4-oxo-1-[2-(propan-2-yloxy)ethyl]-2-sulfanylidene-1H,2H,3H,4H,5H-pyrrolo[3,2-d]pyrimidin-5-yl}methyl (2S)-2-amino-3-methylbutanoate] returned a Papp at 90 min, 10 µM of 1.18 ×10⁻⁶ cm/s. For the same compound, the SGF in series [2] is on record as 97% @ 1 h. The SIF in series [3] is 43% @ 1 h. In addition, in “Plasma Stability”, the “human Plasma stability” value came out at 12% @ 1 h.

With `CC(C)OCCn1c(=S)n(COC(=O)[C@@H](N)C(C)C)c(=O)c2c1ccn2COC(=O)[C@@H](N)C(C)C.O=C(O)C(F)(F)F.O=C(O)C(F)(F)F` [Example 297, bis(trifluoroacetic acid) [3-({[(2S)-2-amino-3-methylbutanoyl]oxy}methyl)-4-oxo-1-[2-(propan-2-yloxy)ethyl]-2-sulfanylidene-1H,2H,3H,4H,5H-pyrrolo[3,2-d]pyrimidin-5-yl]methyl (2S)-2-amino-3-methylbutanoate], the Papp at 90 min, 10 µM in series [1] amounted to 0.462 ×10⁻⁶ cm/s. Moreover, the SGF in series [2] was 100% @ 1 h. Besides, the SIF in series [3] is 6% @ 1 h. Besides, the “human Plasma stability” value in “Plasma Stability” amounted to 6% @ 1 h.

`CC(C)OCCn1c(=S)[nH]c(=O)c2c1ccn2COC(=O)[C@H](NC(=O)OC(C)(C)C)C(C)C` [Example 298, {4-oxo-1-[2-(propan-2-yloxy)ethyl]-2-sulfanylidene-1H,2H,3H,4H,5H-pyrrolo[3,2-d]pyrimidin-5-yl}methyl (2R)-2-{[(tert-butoxy)carbonyl]amino}-3-methylbutanoate] registered a Papp at 90 min, 10 µM in series [1] of 33.5 ×10⁻⁶ cm/s. The SGF in series [2] is given as 99% @ 1 h. Also, the SIF in series [3] is 59% @ 1 h. The “human Plasma stability” value in the series “Plasma Stability” was found to be 99% @ 1 h.

`CC(C)OCCn1c(SCOC(=O)[C@H](NC(=O)OC(C)(C)C)C(C)C)nc(=O)c2c1ccn2COC(=O)[C@H](NC(=O)OC(C)(C)C)C(C)C` [Example 299, {[5-({[(2R)-2-{[(tert-butoxy)carbonyl]amino}-3-methylbutanoyl]oxy}methyl)-4-oxo-1-[2-(propan-2-yloxy)ethyl]-1H,4H,5H-pyrrolo[3,2-d]pyrimidin-2-yl]sulfanyl}methyl (2R)-2-{[(tert-butoxy)carbonyl]amino}-3-methylbutanoate] showed a Papp at 90 min, 10 µM in series [1] of 15.8 ×10⁻⁶ cm/s. The SGF in series [2] is 54% @ 1 h. In addition, in series [3], the SIF is reported as 27% @ 1 h. The “human Plasma stability” value in “Plasma Stability” came out at 94% @ 1 h.

For the compound `CC(C)OCCn1c(=S)[nH]c(=O)c2c1ccn2COC(=O)[C@H](N)C(C)C` [Example 300, trifluoroacetic acid {4-oxo-1-[2-(propan-2-yloxy)ethyl]-2-sulfanylidene-1H,2H,3H,4H,5H-pyrrolo[3,2-d]pyrimidin-5-yl}methyl (2R)-2-amino-3-methylbutanoate], the Papp at 90 min, 10 µM in series [1] worked out at 12.9 ×10⁻⁶ cm/s. In addition, the SGF in series [2] is reported as 100% @ 1 h. Besides, in series [3], the SIF was 70% @ 1 h. Besides, in the series “Plasma Stability”, the “human Plasma stability” value came to 2% @ 1 h.

In series [1], `CC(C)OCCn1c(=S)n(COC(=O)[C@H](N)C(C)C)c(=O)c2c1ccn2COC(=O)[C@H](N)C(C)C.O=C(O)C(F)(F)F.O=C(O)C(F)(F)F` [Example 301, bis(trifluoroacetic acid) [3-({[(2R)-2-amino-3-methylbutanoyl]oxy}methyl)-4-oxo-1-[2-(propan-2-yloxy)ethyl]-2-sulfanylidene-1H,2H,3H,4H,5H-pyrrolo [3,2-d]pyrimidin-5-yl]methyl (2R)-2-amino-3-methylbutanoate] had a Papp at 90 min, 10 µM of 1.72 ×10⁻⁶ cm/s. Further, the SGF in series [2] is 97% @ 1 h. In addition, the SIF in series [3] is reported as 10% @ 1 h. The “human Plasma stability” value in “Plasma Stability” came to 5% @ 1 h.

Compound `CC(C)OCCn1c(=S)[nH]c(=O)c2c1ccn2COC(=O)[C@H](Cc1ccccc1)NC(=O)OC(C)(C)C` [Example 302, {4-oxo-1-[2-(propan-2-yloxy)ethyl]-2-sulfanylidene-1H,2H,3H,4H,5H-pyrrolo[3,2-d]pyrimidin-5-yl}methyl (2S)-2-{[(tert-butoxy)carbonyl]amino}-3-phenylpropanoate] returned a Papp at 90 min, 10 µM in series [1] of 4.48 ×10⁻⁶ cm/s. The SGF in series [2] is recorded as 97% @ 1 h. The SIF in series [3] is given as 5% @ 1 h. Moreover, the “human Plasma stability” value in the series “Plasma Stability” turned out to be 67% @ 1 h.

In series [1], `CC(C)OCCn1c(SCOC(=O)[C@H](Cc2ccccc2)NC(=O)OC(C)(C)C)nc(=O)c2c1ccn2COC(=O)[C@H](Cc1ccccc1)NC(=O)OC(C)(C)C` [Example 303, {[5-({[(2S)-2-{[(tert-butoxy)carbonyl]amino}-3-phenylpropanoyl]oxy}methyl)-4-oxo-1-[2-(propan-2-yloxy)ethyl]-1H,4H,5H-pyrrolo[3,2-d]pyrimidin-2-yl]sulfanyl}methyl (2S)-2-{[(tert-butoxy)carbonyl]amino}-3-phenylpropanoate] yielded a Papp at 90 min, 10 µM of 5.56 ×10⁻⁶ cm/s. Moreover, in series [2], the SGF is given as 46% @ 1 h. The SIF in series [3] is given as 1% @ 1 h. Further, the “human Plasma stability” value in “Plasma Stability” turned out to be 28% @ 1 h.

The compound `CC(C)OCCn1c(=S)n(COC(=O)[C@H](Cc2ccccc2)NC(=O)OC(C)(C)C)c(=O)c2c1ccn2COC(=O)[C@H](Cc1ccccc1)NC(=O)OC(C)(C)C` [Example 304, [3-({[(2S)-2-{[(tert-butoxy)carbonyl]amino}-3-phenylpropanoyl]oxy}methyl)-4-oxo-1-[2-(propan-2-yloxy)ethyl]-2-sulfanylidene-1H,2H,3H,4H,5H-pyrrolo[3,2-d]pyrimidin-5-yl]methyl (2S)-2-{[(tert-butoxy)carbonyl]amino}-3-phenylpropanoate] returned a Papp at 90 min, 10 µM in series [1] of 0.34 ×10⁻⁶ cm/s. Moreover, the SGF in series [2] is listed as 44% @ 1 h. The SIF in series [3] was 67% @ 1 h. Further, the “human Plasma stability” value in the series “Plasma Stability” is 99% @ 1 h.

Regarding `CC(C)OCCn1c(=S)[nH]c(=O)c2c1ccn2COC(=O)[C@@H](Cc1ccccc1)NC(=O)OC(C)(C)C` [Example 305, {4-oxo-1-[2-(propan-2-yloxy)ethyl]-2-sulfanylidene-1H,2H,3H,4H,5H-pyrrolo [3,2-d]pyrimidin-5-yl}methyl (2R)-2-{[(tert-butoxy)carbonyl]amino}-3-phenylpropanoate], the Papp at 90 min, 10 µM in series [1] was 3.84 ×10⁻⁶ cm/s. In addition, in series [2], the SGF was 73% @ 1 h. For the same compound, the SIF in series [3] is 1% @ 1 h. The “human Plasma stability” value in the series “Plasma Stability” is on record as 39% @ 1 h.

In series [1], `CC(C)OCCn1c(SCOC(=O)[C@@H](Cc2ccccc2)NC(=O)OC(C)(C)C)nc(=O)c2c1ccn2COC(=O)[C@@H](Cc1ccccc1)NC(=O)OC(C)(C)C` [Example 306, {[5-({[(2R)-2-{[(tert-butoxy)carbonyl]amino}-3-phenylpropanoyl]oxy}methyl)-4-oxo-1-[2-(propan-2-yloxy)ethyl]-1H,4H,5H-pyrrolo[3,2-d]pyrimidin-2-yl]sulfanyl}methyl (2R)-2-{[(tert-butoxy)carbonyl]amino}-3-phenylpropanoate] yielded a Papp at 90 min, 10 µM of 3.8 ×10⁻⁶ cm/s. In addition, in series [2], the SGF was 41% @ 1 h. The SIF in series [3] was 1% @ 1 h. Further, the “human Plasma stability” value in “Plasma Stability” amounted to 72% @ 1 h.

`CC(C)OCCn1c(=S)n(COC(=O)[C@@H](Cc2ccccc2)NC(=O)OC(C)(C)C)c(=O)c2c1ccn2COC(=O)[C@@H](Cc1ccccc1)NC(=O)OC(C)(C)C` [Example 307, [3-({[(2R)-2-{[(tert-butoxy)carbonyl]amino}-3-phenylpropanoyl]oxy}methyl)-4-oxo-1-[2-(propan-2-yloxy)ethyl]-2-sulfanylidene-1H,2H,3H,4H,5H-pyrrolo[3,2-d]pyrimidin-5-yl]methyl (2R)-2-{[(tert-butoxy)carbonyl]amino}-3-phenylpropanoate] came in with a Papp at 90 min, 10 µM in series [1] of 0.334 ×10⁻⁶ cm/s. Further, in series [2], the SGF is 26% @ 1 h. The SIF in series [3] is listed as 43% @ 1 h. Moreover, the “human Plasma stability” value in “Plasma Stability” was found to be 99% @ 1 h.

In series [1], `CC(C)OCCn1c(=S)[nH]c(=O)c2c1ccn2COC(=O)[C@@H](N)Cc1ccccc1.O=C(O)C(F)(F)F` [Example 308, trifluoroacetic acid {4-oxo-1-[2-(propan-2-yloxy)ethyl]-2-sulfanylidene-1H,2H,3H,4H,5H-pyrrolo[3,2-d]pyrimidin-5-yl}methyl (2S)-2-amino-3-phenylpropanoate] showed a Papp at 90 min, 10 µM of less than 0.364 ×10⁻⁶ cm/s. In addition, the SGF in series [2] is given as 97% @ 1 h. The SIF in series [3] is 44% @ 1 h. In addition, the “human Plasma stability” value in the series “Plasma Stability” stood at 2.5% @ 1 h.
